Test results reported in patent US20200229435A1, “ANTIMICROBIAL MIXTURE CONTAINING 4-(3-ETHOXY-4-HYDROXYPHENYL)BUTAN-2-ONE AND AN AMMONIUM COMPOUND, AND COSMETIC COMPOSITION CONTAINING SAME” (L'OREAL, priority 2017, published 2020).

Assays:
Format in all cases: cell-based
[1] = test system: Candida albicans ATCC 10231; assay: MIC / synergy (FIC index) microplate growth test, optical density at 620 nm, Candida albicans
Excerpt: (§1) FIC Index=(MICa with B/MICa)+(MICb with A/MICb)
(§2) with: • MICa with B: minimum concentration of product A in the combination A+B which makes it possible to obtain an inhibitory effect • MICb with A: minimum concentration of product B in the combination A+B which makes it possible to obtain the inhibitory effect. • MICa: minimum inhibitory concentration of product A alone. • MICb: minimum inhibitory concentration of product B alone.
(§3) As regards the combinations tested, MICa with b and MICb with a are the respective concentrations of A and of B in the combinations which make it possible to obtain a microbial growth percentage of less than or equal to 25%.
(§4) When the FIC index value is less than or equal to 1, it is considered that the combination of test compounds has a synergistic effect.
The microbial strain Candida albicans ATCC 10231 and a double-concentration Sabouraud broth liquid culture medium were used.
(§5) A 96-well microplate and an […] of 32.5° C. are used.
(§6) The incubation time of the microplate is: • from 24 hours to 48 hours aerobically for Aspergillus niger; • from 18 to 24 hours aerobically for Candida albicans and Pseudomonas aeruginosa.
(§7) A 10% (weight/volume) stock solution was prepared by mixing 1 g of compound in 9 ml of aqueous 1% agar solution. Successive dilutions were made with the 1% agar solution. • Tests of compounds A and B alone
(§8) 50 μL of each of the daughter solutions obtained containing compound A or B are added to the microplate wells. 100 μL of Sabouraud liquid nutrient broth seeded with the strain Aspergillus niger and 50 μL of aqueous 1% agar solution are also added thereto. • Tests of compounds A and B as a mixture
(§9) 50 μL of each of the daughter solutions obtained containing compound A and 50 μL of each of the daughter solutions obtained containing compound B are added to the microplate wells. 100 μL of Sabouraud liquid nutrient broth seeded at double concentration with the strain Aspergillus niger are also added thereto.
(§10) A positive microbial growth control was also prepared. The positive microbial growth control corresponds to a mixture of 100 μL of aqueous 1% agar solution with 100 μL of Sabouraud liquid nutrient broth seeded at double concentration with the strain Aspergillus niger in the absence of compounds A and B.
(§11) An absorbance control was performed in parallel on compounds A and B alone. This control corresponds to 100 μL of double concentration sterile Sabouraud liquid nutrient broth+100 μL of double concentration compound A or B.
(§12) The test as described above (tests, absorbance control and growth control) was performed again to test the combination A+B on the strains Candida albicans and Pseudomonas aeruginosa.

[2] = test system: Aspergillus niger ATCC 6275; assay: MIC / synergy (FIC index) microplate growth test, optical density at 620 nm, Aspergillus niger
Excerpt: as §1, §2, §3, §4
The microbial strain Aspergillus niger ATCC 6275, and a double-concentration Sabouraud broth liquid culture medium supplemented with polyoxyethylenated (20 OE) sorbitan monopalmitate (Tween 40 from Croda) and Phytagel© BioReagent were used.
as §5, §6, §7, §8, §9, §10, §11
In the two cases (test and control), the inoculum represents the concentration of the strain Aspergillus niger present in the final volume of the wells (200 μL) and is between 2 and 6×10^5 cfu/ml of Aspergillus niger.

[3] = test system: Pseudomonas aeruginosa ATCC 9027; assay: MIC / synergy (FIC index) microplate growth test, optical density at 620 nm, Pseudomonas aeruginosa
Excerpt: as §1, §2, §3, §4
The microbial strain Pseudomonas aeruginosa ATCC 9027 and a double-concentration nutritive broth liquid culture medium were used.
as §5, §6, §7, §8, §9, §10, §11, §12

[4] = weight %, first concentration giving growth <= 25%

Molecule `CCOc1cc(CCC(C)=O)ccc1O` [A, 4-(3-ethoxy-4-hydroxyphenyl)butan-2-one] has a microbial growth percentage ([1]; A 0.025 weight % alone) of 73%, a microbial growth percentage ([1]; A 0.05 weight % alone) of 73% and a microbial growth percentage ([1]; A 0.1 weight % alone) of 49%. For the same molecule, the microbial growth percentage ([1]; A 0.2 weight % alone) was 9%, the “% MIC of A alone” value [1, 4] was 0.2% and the microbial growth percentage ([2]; Example 1, A 0.025 weight % alone) was 150%. For the same molecule, the microbial growth percentage ([2]; Example 1, A 0.05 weight % alone) was 113%, the microbial growth percentage ([2]; Example 1, A 0.1 weight % alone) was 112% and the microbial growth percentage ([2]; Example 1, A 0.2 weight % alone) was 75%. For the same molecule, the microbial growth percentage ([2]; Example 1, A 0.4 weight % alone) was 5%, the “% MIC of A alone” value ([2]; Example 1, weight %, first concentration giving growth <= 25%) was 0.4% and the microbial growth percentage ([2]; Example 2, A 0.025 weight % alone) was 212%. For the same molecule, the microbial growth percentage ([2]; Example 2, A 0.05 weight % alone) was 92%, the microbial growth percentage ([2]; Example 2, A 0.1 weight % alone) was 68% and the microbial growth percentage ([2]; Example 2, A 0.2 weight % alone) was 29%. For the same molecule, the microbial growth percentage ([2]; Example 2, A 0.4 weight % alone) was 17%, the “% MIC of A alone” value ([2]; Example 2, weight %, first concentration giving growth <= 25%) was 0.4% and the microbial growth percentage ([3]; A 0.0625 weight % alone) was 114%. The microbial growth percentage ([3]; A 0.125 weight % alone) was 59%, the microbial growth percentage ([3]; A 0.25 weight % alone) was 65% and the microbial growth percentage ([3]; A 0.5 weight % alone) was 41%. For the same molecule, the microbial growth percentage ([3]; A 1 weight % alone) was 15% and the “% MIC of A alone” value [3, 4] was 1%.

In the case of `CCCCCCCCCCCCCCCCCCCCCC[N+](C)(C)C.[Cl-]` [B1, behenyltrimethylammonium chloride], the microbial growth percentage ([1]; B1 0.002 weight % alone) is reported as 50%, the microbial growth percentage ([1]; B1 0.00395 weight % alone) is reported as 1% and the “% MIC of B1 alone” value [1, 4] is reported as 0.00395%. The microbial growth percentage ([2]; B1 0.049 weight % alone) was 186%, the microbial growth percentage ([2]; B1 0.1 weight % alone) was 155% and the microbial growth percentage ([2]; B1 0.2 weight % alone) was 78%. The microbial growth percentage ([2]; B1 0.4 weight % alone) was 34%, the microbial growth percentage ([2]; B1 0.79 weight % alone) was 8% and the “% MIC of B1 alone” value [2, 4] was 0.79%. It also gave a microbial growth percentage ([3]; B1 0.001975 weight % alone) of 68%, a microbial growth percentage ([3]; B1 0.00395 weight % alone) of 93% and a microbial growth percentage ([3]; B1 0.0079 weight % alone) of 36%. For the same molecule, the microbial growth percentage ([3]; B1 0.0158 weight % alone) was 30%, the microbial growth percentage ([3]; B1 0.0316 weight % alone) was 1% and the “% MIC of B1 alone” value [3, 4] was 0.0316%.
